Results from patent US12403144B2, “HECT E3 ligase inhibitors and uses thereof” (IFOM FONDAZIONE ISTITUTO FIRC DI ONCOLOGIA MOLECOLARE, priority 2019, dated 2025).

Target: T1, HECT of NEDD4 L553F (Homo sapiens, UniProt P46934, L972F)
T1 construct: 250 nM untagged HECT of NEDD4 WT or NEDD4 L553F or NEDD4L WT; made in house
T1 sequence (P46934 519-900 isoform P46934-4 L553F limits assumed): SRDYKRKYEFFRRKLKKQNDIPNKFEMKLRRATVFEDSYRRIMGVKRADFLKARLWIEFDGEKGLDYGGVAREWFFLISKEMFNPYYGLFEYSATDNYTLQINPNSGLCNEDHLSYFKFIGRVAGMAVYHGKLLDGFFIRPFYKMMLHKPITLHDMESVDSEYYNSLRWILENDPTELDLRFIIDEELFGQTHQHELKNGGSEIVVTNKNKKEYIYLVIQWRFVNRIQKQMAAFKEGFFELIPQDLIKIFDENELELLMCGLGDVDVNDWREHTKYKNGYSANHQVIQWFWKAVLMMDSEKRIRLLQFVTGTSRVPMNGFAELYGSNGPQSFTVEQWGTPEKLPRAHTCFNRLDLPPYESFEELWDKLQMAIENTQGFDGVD
Test: In vitro ubiquitination assay detected by western blot, HECT NEDD4 L553F mutant
Format: biochemical
Conditions: 10 μM; FIG. 4c
Method: In vitro ubiquitination assay performed with HECT NEDD4 WT and HECT NEDD4L WT in presence of the indicated compounds at 10 μM concentration. The symbol “−” indicates the DMSO-treated sample. Reactions were stopped after 1 hour with Laemmli buffer. […] HECT of NEDD4 bound to compound 12 is shown in light grey, superposed with the structure of HECT of NEDD4L (pdb entry 2oni, version 1.2, 13 Jul. 2011, shown in dark grey). c. In vitro ubiquitination assay using the HECT of NEDD4 WT (HECT WT) and L553F (HECT L553F) was performed in presence of compound 12 at 10 μM concentration. The symbol “-” indicates the DMSO-treated sample. Immunoblot was performed with the anti-ubiquitin antibody (upper panel).
An in vitro ubiquitination assay followed by western blot detection was used to determine the selectivity of the different compounds. The full protocol is described in (E. Maspero et al. Methods Mol Biol. 1449:153-60 (2016)). Briefly, the assay was performed with bacterially purified enzymes (20 nM E1, 250 nM of purified His6-tagged UBE2D3 and 250 nM untagged HECT of NEDD4 WT or NEDD4 L553F or NEDD4L WT) and 1 μM of untagged ubiquitin in ubiquitination buffer (25 mM Tris-HCl, pH 7.6, 5 mM MgCl2, 100 mM NaCl, 0.2 μM DTT). […] The binding pocket determined by X-ray is highly conserved among the various members of the NEDD4 family with few important exceptions. […]

activity of compound on HECT NEDD4 L553F mutant (anti-ubiquitin immunoblot): fully abrogate the activity
Structure (SMILES): CCOC(=O)/C=C/CNCCCCN1c2ccccc2CCc2ccc(Cl)cc21.O=C(O)/C=C\C(=O)O [Compound 12, Ethyl (E)-4-[4-(3-chloro-10,11-dihydro-5H-dibenzo[b,f]azepin-5-yl)butylamino]but-2-enoate maleate]
